Results published in patent publication US5612331A, “Tetrahydrocarbazole derivatives as 5-HT1-like agonists” (SmithKline Beecham PLC, priority 1992, dated 1997).
Where a name gives a salt, the structure may show the parent alone.

biological target: T1, 5-HT1-like receptor (Oryctolagus cuniculus, UniProt P49144); assay: Rabbit isolated basilar artery, cumulative concentration-effect curves (isometric tension); assay type: cell-based; details: rabbit isolated basilar artery rings, endothelium removed; in presence of ascorbate, indomethacin, cocaine, ketanserin and prazosin
T1 construct: the basilar artery removed with the aid of a dissecting microscope; from tissue; host or cells: rabbit basilar artery ring segments, endothelium removed
T1 sequence (P49144 whole entry): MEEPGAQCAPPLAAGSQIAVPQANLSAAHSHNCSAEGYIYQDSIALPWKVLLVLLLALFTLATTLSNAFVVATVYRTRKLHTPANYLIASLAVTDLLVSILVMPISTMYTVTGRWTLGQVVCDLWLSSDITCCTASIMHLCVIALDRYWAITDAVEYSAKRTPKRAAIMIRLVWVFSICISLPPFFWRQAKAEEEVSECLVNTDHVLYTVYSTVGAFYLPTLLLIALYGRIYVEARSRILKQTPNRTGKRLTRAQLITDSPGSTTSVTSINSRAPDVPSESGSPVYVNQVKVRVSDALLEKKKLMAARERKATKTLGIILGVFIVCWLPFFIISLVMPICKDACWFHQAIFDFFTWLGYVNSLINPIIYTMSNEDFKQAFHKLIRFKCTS
Description: Experiments were performed in intracranial arteries from rabbit isolated basilar artery in a similar method to one described previously (Parsons and Whalley, 1989. Eur J Pharmacol 174, 189-196.).
In brief, rabbits were killed by overdose with anaesthetic (sodium pentobarbitone). The whole brain was quickly removed and immersed in ice cold modified Kreb's solution and the basilar artery removed with the aid of a dissecting microscope. The Krebs solution was of the following composition (mM) Na^+ (120); K^+ (5); Ca^2+ (2.25); Mg^2+ (0.5); Cl^- (98.5); SO4^2- (1); EDTA (0.04), equilibrated with 95% O2 /5% CO2. The endothelium was removed by a gentle rubbing of the lumen with a fine metal wire. Arteries were then cut into ring segments (ca 4-5 mm wide) and set up for recording of isometric tension in 50 ml tissue baths in modified Krebs solution with the additional supplement of (mM); […] (20); fumarate (10); pyruvate (5); L-glutamate (5) and glucose (10). The arteries were then placed under a resting force of 3-4 mN maintained at 37° C. and the solution bubbled with 95% O2 /5% CO2.
After tests for initial reactivity with 90 mM KCl depolarising solution and for lack of acetylcholine-induced relaxation of 5-HT ([…]) precontraction, cumulative concentration-effect curves ([…]) to 5-HT were constructed in the presence of ascorbate […], cocaine […], indomethacin […], ketanserin […] and prazosin […].
Following a 45-60 min wash period, cumulative concentration-effect curves to the test compounds or 5-HT (as a time match control) were constructed in the presence of ascorbate, indomethacin, cocaine, ketanserin and prazosin.

EC50, 90 to 4010 nM:
Nc1ccc(CCNC(=O)c2ccc3[nH]c4c(c3c2)CC(N)CC4)cc1 (stereo not drawn) [Example 6, 3-Amino-6-N-[2-(4-aminophenyl)ethyl]carboxamido-1,2,3,4-tetrahydrocarbazoleoxalate salt]
COc1ccc(CCCNC(=O)c2ccc3[nH]c4c(c3c2)CC(N)CC4)cc1 (stereo not drawn) [Example 17, 3-Amino-6-[3-(4-methoxyphenyl)propyl]carboxamido-1,2,3,4-tetrahydrocarbazole oxalate salt]
COc1ccc(CCNC(=O)c2ccc3[nH]c4c(c3c2)CC(N)CC4)cc1 (stereo not drawn) [Example 8, 3-Amino-6-N-[2-(4-methoxyphenyl)ethyl]carboxamido-1,2,3,4-tetrahydrocarbazole oxalate salt]
NC1CCc2[nH]c3ccc(C(=O)NCCCc4ccccc4)cc3c2C1 (stereo not drawn) [Example 1, 3-Amino-6-N-(3-phenylpropyl)carboxamido-1,2,3,4-tetrahydrocarbazole oxalate salt]
NC1CCc2[nH]c3ccc(C(=O)NC/C=C/c4ccccc4)cc3c2C1 (stereo not drawn) [Example 15, 3-Amino-6-(E-3-(phenylprop-2-enyl)carboxamido-1,2,3,4-tetrahydrocarbazole oxalate salt]
NC1CCc2[nH]c3ccc(C(=O)NC/C=C/c4cccc([N+](=O)[O-])c4)cc3c2C1 (stereo not drawn) [Example 18, 3-Amino-6-[E-3 (3-nitrophenyl)prop-2-enyl]carboxamido-1,2,3,4-tetrahydrocarbazole oxalate salt]
COc1cccc(/C=C/CNC(=O)c2ccc3[nH]c4c(c3c2)CC(N)CC4)c1 (stereo not drawn) [Example 14, 3-Amino-6-[E-3-(3-methoxyphenyl)prop-2-enyl]carboxamido-1,2,3,4-tetrahydrocarbazole oxalate salt]
CS(=O)(=O)Nc1ccc(CCNC(=O)c2ccc3[nH]c4c(c3c2)CC(N)CC4)cc1 (stereo not drawn) [Example 7, 3-Amino-6-N-[2-(4-methylsulphonamidophenyl)ethyl]carboxamido-1,2,3,4-tetrahydrocarbazole oxalate salt]
NC1CCc2[nH]c3ccc(C(=O)NCCc4ccc([N+](=O)[O-])cc4)cc3c2C1 (stereo not drawn) [Example 5, 3-Amino-6-N-[2-(4-nitrophenyl)ethyl]carboxamido-1,2,3,4-tetrahydrocarbazolefumarate salt]
NC1CCc2[nH]c3ccc(C(=O)NCCc4ccc(S(N)(=O)=O)cc4)cc3c2C1 (stereo not drawn) [Example 9, 3-Amino-6-N-[2-(4-phenylsulphonamido)ethyl]carboxamido-1,2,3,4-tetrahydrocarbazole]
NC1CCc2[nH]c3ccc(C(=O)NCCc4ccccc4)cc3c2C1 (stereo not drawn) [Example 3, 3-Amino-6-N-(2-phenylethyl)carboxamido-1,2,3,4-tetrahydrocarbazole]
COc1ccc(/C=C/CNC(=O)c2ccc3[nH]c4c(c3c2)CC(N)CC4)cc1 (stereo not drawn) [Example 13, 3-Amino-6-[E-3-(4-methoxyphenyl)prop-2-enyl]carboxamido-1,2,3,4-tetrahydrocarbazole oxalate salt]
